Numbers after ± are expanded uncertainties.
Assays:
[1] = Crystal; DTA
[2] = Molar enthalpy of transition or fusion; details: Crystal; DSC

Normal melting temperature [1]: 173.80 ± 1.1 °C
Molar enthalpy of transition or fusion [2]: 5.93 ± 0.239 kcal/mol
Structure (SMILES): COc1cc(Cl)nc(N)n1 [2-amino-4-chloro-6-methoxypyrimidine]

From the NIST ThermoML archive (doi:10.1016/j.jct.2016.10.020)
